{"source": "paper PMC3600082", "about": "(Journal of medicinal chemistry, 2013)", "key": {"[1]": {"tested_on": "Gag CA-SP1 cleavage in wild type NL4-3", "details": "virus produced by 293T cells in presence of compound; Western blot"}, "[2]": {"tested_on": "HIV-1 NL4-3 Env-mediated cell-cell fusion", "test": "Fusion assay", "format": "cell-based", "details": "COS cells expressing Env mixed with TZM-bl cells; luciferase"}, "[3]": {"tested_on": "Gag CA-SP1 cleavage in NL4-3/V370A", "test": "Anti-HIV-1 maturation assay", "format": "cell-based", "details": "virus produced by 293T cells in presence of compound; Western blot"}, "[4]": {"tested_on": "BVM-R HIV-1 variants (V370Δ, V370A, V362I, T371Δ)", "test": "Multi-cycle viral replication in MT4 cell assay, panel of BVM-R variants", "format": "cell-based", "details": "for sensitivity of BVM-R viruses to the compound: BVM-R variants"}, "HIV-1 NL4-3": {"tested_on": "HIV-1 NL4-3", "details": "relative to compound 1; cited from earlier work"}, "[5]": {"tested_on": "Gag CA-SP1 cleavage in NL4-3/V362I", "test": "Anti-HIV-1 maturation assay", "format": "cell-based", "details": "virus produced by 293T cells in presence of compound; Western blot"}, "NL4-3/V370A": {"tested_on": "NL4-3/V370A", "test": "Multi-cycle viral replication in MT4 cell assay", "format": "cell-based, HIV-1", "details": "relative to compound 1"}}, "note": "Entries after “also recorded” stand apart in the source; their conditions may differ."}
{"smiles": "C=C(C)[C@@H]1CC[C@]2(C(=O)O)CC[C@]3(C)[C@H](CC[C@@H]4[C@@]5(C)CC[C@H](OC(=O)CC(C)(C)C(=O)O)C(C)(C)[C@@H]5CC[C@]43C)[C@@H]12", "note": "[Compound 1, 3-O-(3’,3’-dimethylsuccinyl)-betulinic acid]", "values": [{"measurement": "inhibition of Gag CA-SP1 cleavage (p25 accumulation), wild type NL4-3", "setting": "[1]", "value": "interfered with the cleavage of Gag CA-SP1"}, {"measurement": "inhibition of HIV-1 entry / Env-mediated cell-cell fusion", "setting": "[2]", "value": "do not inhibit HIV-1 entry"}, {"measurement": "inhibition of Gag CA-SP1 cleavage (p25 accumulation), NL4-3/V370A", "setting": "[3]", "value": "did not inhibit the cleavage of Gag CA-SP1"}, {"measurement": "sensitivity of BVM-R viruses to the compound", "setting": "[4]", "value": "not sensitive"}]}
{"smiles": "C=C(C)[C@@H]1CC[C@]2(C(=O)N3CCN(CCCCC(=O)O)CC3)CC[C@]3(C)[C@H](CC[C@@H]4[C@@]5(C)CC[C@H](OC(=O)CC(C)(C)C(=O)O)C(C)(C)[C@@H]5CC[C@]43C)[C@@H]12", "note": "[Compound 30, N-[3β-O-(3′,3′-dimethylsuccinyl)lup-20(29)-en-28-oyl]-5-piperazinepentanoic acid]", "values": [{"measurement": "increase in anti-HIV-1 maturation activity", "setting": "HIV-1 NL4-3", "value": "greater than 10 fold"}, {"measurement": "sensitivity of BVM-R viruses to the compound", "setting": "[4]", "value": "ineffective; also recorded: not effective"}]}
{"smiles": "C=C(C)[C@@H]1CC[C@]2(C(=O)NCCCCCCCCC(=O)N[C@@H](CCC(N)=O)C(=O)OC)CC[C@]3(C)[C@H](CC[C@@H]4[C@@]5(C)CC[C@H](OC(=O)CC(C)(C)C(=O)O)C(C)(C)[C@@H]5CC[C@]43C)[C@@H]12", "note": "[Compound 6, Methyl N-[N’-[3β-O-(3’,3’-dimethylsuccinyl)-betulinic acid-28-oyl]-9-aminononanoyl]-L-glutaminate]", "values": [{"measurement": "inhibition of Gag CA-SP1 cleavage (p25 accumulation), NL4-3/V362I", "setting": "[5]", "value": "accumulation of p25 was even more pronounced"}, {"measurement": "fold more potent than 1 against the replication of NL4-3/V370A", "setting": "NL4-3/V370A", "value": "at least 20 fold"}, {"measurement": "inhibition of HIV-1 entry / Env-mediated cell-cell fusion", "setting": "[2]", "value": "do not inhibit HIV-1 entry; also recorded: did not inhibit"}, {"measurement": "inhibition of Gag CA-SP1 cleavage (p25 accumulation), NL4-3/V370A", "setting": "[3]", "value": "resulted in accumulation of CA-SP1 (p25)"}, {"measurement": "sensitivity of BVM-R viruses to the compound", "setting": "[4]", "value": "sensitive"}, {"measurement": "fold more potent than 1 against four BVM-R viruses", "setting": "[4]; relative to compound 1", "value": "at least 20 fold"}]}
